The results in this text go back to patent publication US8945879B2, “Methods for recombinant expression of a polypeptide comprising a carbohydrate binding module using a host cell having reduced expression of a protease” (priority 2007, dated 2015).

Sequences and labels used below:
B1: 19 kDa protease: Aspergillus niger 19 kDa protease (SEQ ID NO: 5) expressed intracellularly in A. oryzae, pooled gel permeation fractions (protein)
chain: MSPIPSYSRPGRGQHFQDAYGFAEACIAGDRMEIAGQTGMSPTSTEVPPTLEEEVAQAFNNINEVILYTLEKAKPDLRASVKSGWDRVVKIRTYHVQLPQTREKIIGLMVENVKKWCPDHQPTWTMLGIEALPFEGQNLEIEVDVFLG
modifications: Aspergillus niger

Numbered stars: 1 amine (or outer) side, 2 acyl side, 3 side chain; on linkers, the order of the positions; unused ones are H or OH. Square brackets hold non-standard residues; d marks the D form. Peptide text beside a SMILES is read from it. * marks the point of attachment. Sta = CC(C)C[C@H](N)[C@@H](O)CC(=O)O; AMC = Cc1cc(=O)oc2cc(N*)ccc12; Suc = O=C(CCC(=O)[*:2])[*:1]; Isovaleryl = CC(C)CC(=O)*; code Z = not defined here; Boc = CC(C)(C)OC(=O)*

The first assay has as its system 19 kDa protease. The experiment in a line: Substrate specificity of the 19 kDa protease (fluorogenic MCA substrates). It is filed as biochemical, Aspergillus niger. Conditions: 0.04 mM substrate solution, phosphate buffer pH 6.7, 37° C., 30 min, fluorescence 360/460 nm; Suc-LLVY-MCA = 100%. The protocol:
(§1) Five synthetic substrates were purchased from Peptide Institute Co., Osaka. The substrates are Glt-AAF-MCA, Suc-LLVY-MCA, Boc-FSR-MCA, Suc(OMe)-AAPV-MCA, and Z-LLE-MCA. 25 μl of 0.04 mM substrates were preincubated at 37° C. for 5 min. 20 μl of protease sample were mixed with 25 μl of 400 mM phosphate buffer, pH 6.7, 5 μl of 2 M NaCl, and 25 μl of Milli Q water, and then preincubated at 37° C. for 5 min. The reactions were started by mixing the substrate solutions and the enzyme solutions. Increases of fluorescent strength were measured by FL600 Microplate Fluorescence Reader with 360 nm excitation and 460 nm emission filters at 37° C. for 30 min.
As for “Suc(OMe)-AAPV-MCA ({Suc(OMe)}-AAPV-{AMC}) [synthetic substrate purchased from Peptide Institute Co., Osaka]”, the “Substrate specificity (relative activity on substrate)” value came out at 0.2%. Still for that read-out and setting: for “Z-LLE-MCA ({code Z}-Leu-Leu-Glu-{AMC}; reading uncertain; also: printed as Z-LLE-MCA) [synthetic substrate purchased from Peptide Institute Co., Osaka]” the value was 0.1%. For “Suc-LLVY-MCA (Suc-LLVY-{AMC}) [synthetic substrate purchased from Peptide Institute Co., Osaka]”, the “Substrate specificity (relative activity on substrate)” value is given as 100.0%. For “Glt-AAF-MCA (Glt-Ala-Ala-Phe-{AMC}) [synthetic substrate purchased from Peptide Institute Co., Osaka]”, the “Substrate specificity (relative activity on substrate)” value turned out to be 1.6%.

Consider “Boc-FSR-MCA (Boc-Phe-Ser-Arg-{AMC}) [synthetic substrate purchased from Peptide Institute Co., Osaka]”, for which the “Substrate specificity (relative activity on substrate)” value is 0.3%.

The same assay, now with this note: five synthetic substrates compared, pH 6.7, 37° C.
Consider “Suc-LLVY-MCA (Suc-LLVY-{AMC}) [synthetic substrate purchased from Peptide Institute Co., Osaka]”, for which the “substrate ranking (in words)” value is “best substrate”.

The test system of another assay is 19 kDa protease. The experiment in a line: Effects of inhibitors on the 19 kDa protease (Suc-LLVY-MCA hydrolysis). Format: biochemical, Aspergillus niger. Particulars: substrate 0.04 mM Suc-LLVY-MCA, KPB pH 6.7, 37° C.; 10 μl inhibitor stock (10 mM AEBSF, ZnSO4, EDTA; leupeptin 4.5 mg/10 ml and pepstatin A 3 mg/10 ml in DMSO diluted 10 times). The protocol:
as §1
4-(2-aminoethyl)-benzenesulfonyl fluoride (AEBSF), leupeptin, pepstatin A, ZnSO4, and EDTA were purchased from Wako Chemical Co., Osaka. The inhibitors were 4.5 mg/10 ml leupeptin in DMSO diluted 10 times by Milli Q water, 3 mg/10 ml pepstatin A in DMSO diluted 10 times by Milli-Q water, 10 mM AEBSF, 10 mM ZnSO4, and 10 mM EDTA. The substrate was 0.04 mM Suc-LLVY-MCA. Enzyme solution contains 5 μl of pooled 19 kDa protease fraction, 10 μl of inhibitors, 25 μl of 400 mM KPB, pH 6.7, and 35 μl of Milli-Q water. The substrate solution and the enzyme solutions were preincubated separately at 37° C. for 5 min. The activities were measured as described above.
As to `O=C(O)CN(CCN(CC(=O)O)CC(=O)O)CC(=O)O` [EDTA], the “residual activity (%)” value was determined as 101%. On the same count and under the same terms, for `CC(=O)N[C@@H](CC(C)C)C(=O)N[C@@H](CC(C)C)C(=O)N[C@H](C=O)CCCNC(=N)N` [Leupeptin, leupeptin] the value was 89%. Still for that read-out and setting: as for `NCCc1ccc(S(=O)(=O)F)cc1` [AEBSF, 4-(2-aminoethyl)-benzenesulfonyl fluoride], the figure is 100%. `CC(C)CC(=O)N[C@H](C(=O)N[C@H](C(=O)N[C@@H](CC(C)C)[C@@H](O)CC(=O)N[C@@H](C)C(=O)N[C@@H](CC(C)C)[C@@H](O)CC(=O)O)C(C)C)C(C)C` [Pepstatin, pepstatin A] (Isovaleryl-VV[Sta]A[Sta]-OH): the “residual activity (%)” value is 91%. On the same count and under the same terms, for `O=S(=O)([O-])[O-].[Zn+2]` [ZnSO4] the value was 99%.

Test system in the next assay: not listed separately
The experiment in a line: pH profile of the 19 kDa protease. Format: biochemical, Aspergillus niger. Conditions: phosphate buffer pH 6, 7, 8 and diethanolamine buffer pH 8, 9, 10; 0.04 mM Suc-LLVY-MCA. The protocol:
as §1
Phosphate buffer pH6, 7, 8, and Diethanolamine buffer pH 8, 9, 10 were used. The substrate solution was 0.04 mM Suc-LLVY-MCA. The enzyme solution contains 5 μl of 19 kDa protease, 25 μl of buffer, 5 μl of 2 M NaCl and 40 μl of Milli Q water. Assay was performed as described before. The 19 kDa protease is an alkaline protease with the pH optimum 8-9.
For the molecule B1, the pH optimum is listed as 8-9.
